This passage reports IC50 results from article PMC9260667, “Thioredoxin Reductase Inhibitors as Potential Antitumors: Mercury Compounds Efficacy in Glioma Cells” (Frontiers in Molecular Biosciences, 2022).

Usually IC50 stands for the concentration that gives 50% inhibition. A low value points to inhibition by little substance.

The target in experiment [1] is T1, Trx (Mus musculus, UniProt P10639).
T1 construct: These lysates were compared to a control group and used to quantify TrxR and Trx activity and expression; These fractions were used to quantify TrxR and Trx activity and expression; endogenous in cells; host or cells: GL261 mouse glioma cells (whole lysate, cytosolic and mitochondrial fractions)
T1 sequence (P10639 whole entry): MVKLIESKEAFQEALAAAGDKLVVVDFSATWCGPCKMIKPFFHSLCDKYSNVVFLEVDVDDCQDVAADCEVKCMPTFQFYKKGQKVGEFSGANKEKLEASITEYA
Format: cell-based. The settings on record: cytosol, GL261 exposed 24 h. How it is done: (§1) Total cell lysates were prepared according to previous protocols ([Branco et al., 2014]). 1 × 10^6 cells were plated in […] culture dishes incubated at 37°C until reaching 70–80% confluence. At this point, the culture medium was refreshed and TmHg and EtHg (0.5; 1; 2 µM) were added and incubated at 37°C for 24 h, after which cells were collected by trypsinization and washed with PBS 1x. Subsequently, the pellet was resuspended in lysis buffer (25 mM TrisCl, pH 7.5; 100 mM NaCl; 2.5 mM EDTA; 2.5 mM EGTA; 20 mM NaF, 1 mM sodium orthovanadate, 20 mM sodium pyrophosphate; 20 mM of sodium β-glycerophosphate, 0.5% Triton X-100, and 1 tablet of protease inhibitor cocktail per 10 ml; Roche) vortexed and frozen at −20°C. These lysates were compared to a control group and used to quantify TrxR and Trx activity and expression as described below.
(§2) To obtain the mitochondrial and cytosolic fractions, after exposure to Hg compounds cells were washed and suspended in mitochondrial isolation buffer (210 mM mannitol, 70 mM sucrose, 1 mM EDTA, 10 mM Hepes–NaOH, and pH 7.5), containing protease inhibitor cocktail (Roche). Cells were disrupted with a Teflon pestle and then centrifuged at 600 g for 10 min at 4°C. The resulting nuclear pellets were discarded, and the supernatant was further centrifuged at 13,000 g and 4°C for 15 min, to obtain the mitochondrial pellets and the supernatant soluble fraction. Mitochondrial pellets were treated with cell lysis buffer as described above for whole-cell lysates and the supernatant fraction was further centrifuged at 100,000 g and 4°C for 1 h, to produce the cytosolic fraction ([Branco et al., 2014]). These fractions were used to quantify TrxR and Trx activity and expression as described below.
(§3) The enzymatic activity of TrxR and Trx was determined according to the insulin end-point assay described by [Arnér and Holmgren (2000)] with modifications ([Branco et al., 2014]).
(§4) In parallel, control wells were prepared to contain the same reagents previously mentioned apart from Trx. After the incubation period, 250 µL of a 1 mM DTNB solution in 6 M guanidine-HCL (pH 8.0) was added to wells, and absorbance was measured at 412 nm in a microplate reader (Zenyth 3100, Anthos Labtec Instruments). […] The same procedure was done for the determination of Trx activity, but the samples were incubated with 100 nM of recombinant rat TrxR (IMCO Corp, Sweden) instead of Trx ([Branco et al., 2014]).

Experiment [2] addresses T2, Trx (Mus musculus, UniProt P97493).
T2 construct: These lysates were compared to a control group and used to quantify TrxR and Trx activity and expression; These fractions were used to quantify TrxR and Trx activity and expression; endogenous in cells; host or cells: GL261 mouse glioma cells (whole lysate, cytosolic and mitochondrial fractions)
Format: cell-based. The settings on record: mitochondria, GL261 exposed 24 h. The method, then: as §1, §2, §3, §4

T2 sequence (P97493 60-166): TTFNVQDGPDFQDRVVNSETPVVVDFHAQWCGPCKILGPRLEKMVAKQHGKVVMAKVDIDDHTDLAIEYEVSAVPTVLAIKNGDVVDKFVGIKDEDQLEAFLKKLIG

`C[CH2][Hg][S]c1ccccc1C(=O)[O-].[Na+]` [TmHg, thimerosal]: the IC50 against Trx [1] turned out to be 1200 nM; on Trx [2] it was 1600 nM.
